Test results published in patent US11274132B2, “Combined preparations of PKM2 modulators and HMGB1” (Ruprecht-Karls-Universität Heidelberg, priority 2015, dated 2022).

Legend:
[1] = system: SW480 xenograft tumor; assay: Xenograft tumor growth in nude mice; type: in vivo, mouse; details: 10 μg rhHMGB1 daily intraperitoneal for 2 weeks
Procedure: For animal studies six-week-old female and male athymic CD1 nude mice (Charles River, n=40) were injected subcutaneously with 5×10^6 SW480 or HT29 cells in 100 μl PBS in the right flank using a 30-gauge needle. Treatment was started when tumors were palpable. Daily intraperitoneal injections at the contralateral side for 2 weeks were done with 10 μg rhHMGB1 in 500 μl PBS or PBS only (control group) and/or 12.5 mg/kg/injection L-DON (Ovejera, A. A., Houchens, D. P., Catane, R., Sheridan, M. A. & Muggia, F. M. Efficacy of 6-diazo-5-oxo-L-norleucine and N-[N-gamma-glutamyl-6-diazo-5-oxo-norleucinyl]-6-diazo-5-oxo-norleucine against experimental tumors in conventional and nude mice. Cancer research 39, 3220-3224 (1979).). Tumor volume was measured by a calliper using the ellipsoid formula (length×width×height×½) as described (Tomayko, M. M. & Reynolds, C. P. Determination of subcutaneous tumor size in athymic (nude) mice. Cancer Chemother Pharmacol 24, 148-154 (1989).). After 2 weeks of treatment the animals were sacrificed.

[2] = molecular target: T1, tetrameric PK M2 (Homo sapiens, UniProt P14618); assay: Pyruvate kinase enzymatic assay in cytosolic fractions / homogenates (low PEP); type: cell-based
T1 construct: Activities of glycolytic enzymes measured in cytosolic fractions after treatment with HMGB1; endogenous in cells; host or cells: SW480, HCT116, HT29 cytosolic fractions; homogenates of human colon cancer tissue slices
T1 sequence (P14618 2-531): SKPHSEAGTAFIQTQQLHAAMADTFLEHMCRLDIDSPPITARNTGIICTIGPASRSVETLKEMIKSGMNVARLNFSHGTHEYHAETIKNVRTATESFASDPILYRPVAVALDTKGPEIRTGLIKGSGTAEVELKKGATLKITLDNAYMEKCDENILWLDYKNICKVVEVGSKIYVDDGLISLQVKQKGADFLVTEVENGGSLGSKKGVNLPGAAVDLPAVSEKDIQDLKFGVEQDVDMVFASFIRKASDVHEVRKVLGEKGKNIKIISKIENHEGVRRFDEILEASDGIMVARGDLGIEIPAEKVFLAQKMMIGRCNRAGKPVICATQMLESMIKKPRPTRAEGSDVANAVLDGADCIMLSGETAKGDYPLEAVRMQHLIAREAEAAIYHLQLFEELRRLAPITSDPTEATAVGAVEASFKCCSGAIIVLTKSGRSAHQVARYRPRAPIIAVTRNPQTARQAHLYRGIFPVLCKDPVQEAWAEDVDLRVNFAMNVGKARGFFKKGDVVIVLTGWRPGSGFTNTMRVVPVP
Procedure: (§1) Enzymatic activities of respiratory chain complexes, glycolytic proteins and malic enzyme were determined in subcellular fractions as previously described (Kaminski, M. M. et al. T cell activation is driven by an ADP-dependent glucokinase linking enhanced glycolysis with mitochondrial reactive oxygen species generation. Cell reports 2, 1300-1315 (2012).Bruncko, M. et al. Naphthamidine urokinase plasminogen activator inhibitors with improved pharmacokinetic properties. Bioorganic & medicinal chemistry letters 15, 93-98, (2005)) using a computer-tuneable spectrophotometer (Spectramax Plus Microplate Reader, Molecular Devices; Sunny Vale, Calif., USA) operating in the dual wavelength mode; samples were analyzed in temperature-controlled 96-well plates in a final volume of 300 μl. Activity of ME1 was recorded in presence of increasing amounts of malic acid (0.02, 0.05, 0.1, 0.2, 0.5, 1, 2.5 mM). Vmax and Km were calculated using a Hanes-Woolf plot. In the presence of high substrate levels the Km for malic acid was similar in all three tested cell lines (SW480: 0.32 mM, HCT116: 0.30 mM, HT29: 0.31 mM). Vmax (mU/mg protein) values were 3.38 (SW480, 0.5-5.0 mM malic acid), 5.77 (HCT116, 0.5-5.0 mM malic acid) and 3.68 (HT29, 0.5-5.0 mM malic acid) and 1.68 (SW480, 0.02-0.2 mM malic acid), 3.24 (HCT116, 0.02-0.2 mM malic acid) and 1.89 (HT29, 0.02-0.2 mM malic acid). Two isoforms of ME1, mitochondrial (NAD(P)+dependent) ME3 and mitochondrial (NAD+dependent) ME2, had very low or no detectable activities (data not shown).

[3] = system: pentose phosphate shunt; assay: Incorporation of 14C into RNA ribose from U-14C-labelled glucose; type: cell-based, human; details: HMGB1 80 nM, 24 h
Procedure: (§2) Lactate derived from the metabolism of ^13C6-D-glucose or ^13C5-glutamine was determined by comparing the CH3 group intensities of labeled and non-labeled lactate in NMR. Mitochondrial respiration was measured using an Oroboros 1 oxygraph system. Glycolysis was measured by monitoring the conversion of 5-^3H-Glucose to ^3H2O. Incorporation of ^14C into RNA ribose from U-^14C-labelled glucose was taken as glucose utilization in the pentose phosphate shunt. Enzymatic activities were determined in subcellular fractions as previously described^24.

[4] = system: ATP; assay: Cellular ATP after HMGB1 treatment; type: cell-based, human
[5] = molecular target: T2, Dimeric PK M2 (Homo sapiens, UniProt P14618); assay: Pyruvate kinase enzymatic assay (high PEP); type: cell-based; details: colorectal cancer cells
T2 construct: Activities of glycolytic enzymes measured in cytosolic fractions after treatment with HMGB1; endogenous in cells; host or cells: SW480, HCT116, HT29 cytosolic fractions; homogenates of human colon cancer tissue slices
T2 sequence (P14618 2-531 limits assumed): as the sequence (P14618 2-531) above
Procedure: as §1, with “Two isoforms of ME1, mitochondrial (NAD(P)+dependent) ME3 and mitochondrial (NAD+dependent) ME2, had very low or no detectable activities (data not shown).” left out

[6] = system: ATP synthase; assay: Respiratory chain complex activities in mitochondrial fractions; type: cell-based, human; details: colorectal cancer cell lines; HMGB1 80 nM, 24 h
Procedure: as §1
(§3) Cells were lysed in lysis buffer P (20 mM Tris-HCl (pH 7.4), 137 mM NaCl, 10% (v/v) glycerine, 1% Triton X-100, 2 mM EDTA, 100 mM phenylmethylsulfonyl fluoride and protease inhibitors (Complete mini from Roche). Lysates were centrifuged at 14,000×g (10 min) at 4° C. Total protein was measured by the Bradford (Bio-Rad) method. Soluble protein was resolved by SDS-PAGE, blotted onto nitrocellulose and incubated with one of the following antibodies: mouse monoclonal anti-β-actin (1:3,000, Sigma-Aldrich), rabbit anti PK M2 (1:1,000, Cell Signaling), rabbit anti-malic enzyme 1 (1:1,000, abcam). Appropriate secondary antibodies (1:3,000, horse-radish peroxidase-conjugated) were from Bio-Rad. Visualization was done by enhanced chemiluminescence technique (GE-Healthcare). Mitochondrial fractions were extracted using the ApoAlert Cell Fractionation Kit (Clontech) as described earlier (Gdynia, G. et al. BLOC1S2 interacts with the HIPPI protein and sensitizes NCH89 glioblastoma cells to apoptosis. Apoptosis: an international journal on programmed cell death 13, 437-447, (2008)).

[7] = system: cytochrome c oxidase (COX); assay: as above; type: cell-based, human
Procedure: as §1, §3

[8] = system: complex II and III; assay: as above; type: cell-based, human; details: HMGB1 80 nM, 24 h
Procedure: as §1, §3

[9] = system: complex I to III; assay: as above; type: cell-based, human; details: colorectal cancer cell lines; HMGB1 80 nM, 24 h
Procedure: as §1, §3

[10] = system: HT29 cells; assay: Production of labeled CO2 (glucose and glutamine oxidation); type: cell-based, human; details: HT29 cells after HMGB1 treatment
[11] = system: mitochondrial oxygen consumption; assay: Mitochondrial (cyanide sensitive) respiration, Oroboros oxygraph; type: cell-based, human
Procedure: as §2

## HMGB1: recombinant human HMGB1 protein (Sigma-Aldrich); High Mobility Group Box 1 polypeptide, human, SEQ ID NO: 4
[1]
  xenograft tumor growth: inhibited
[2]; all colorectal cancer cell lines tested, HMGB1 80 nM, 24 h
  tetrameric PK M2 activity: specifically inhibited
[2]; ex vivo tissue slice cultures, HMGB1 160 nM, 72 h
  tetrameric PK M2 activity: specifically inhibited
[3]
  flux of glycolytic intermediates into the pentose phosphate shunt: increased flux
[4]; HCT116 cells
  ATP: substantial decrease
[4]; SW480 cells
  ATP: substantial decrease
[5]
  Dimeric PK M2 activity: unchanged
[6]
  ATP synthase activity: not diminished
[7]; colorectal cancer cell lines, HMGB1 80 nM, 24 h
  COX activity: significantly lower activity levels
[7]; primary tumor tissue slices, HMGB1 160 nM, 72 h
  COX activity: potent inhibition
[8]; HCT116
  coupled complex II and III activity: maintained or even upregulated
[8]; HT29
  coupled complex II and III activity: maintained or even upregulated
[8]; SW480
  coupled complex II and III activity: decreased
[9]
  electron flow from complex I to III: unchanged
[10]
  decrease of glucose oxidation: ~50%
  increase of glutamine oxidation: ~35%
[11]; HCT116 cells, HMGB1 80 nM, 24 h
  inhibition of mitochondrial oxygen consumption: pronounced
[11]; HT29 cells, HMGB1 80 nM, 24 h
  mitochondrial respiration: only slightly reduced
[11]; SW480 cells, HMGB1 80 nM, 24 h
  inhibition of mitochondrial oxygen consumption: pronounced
[11]; colorectal cancer tissue slices, HMGB1 160 nM, 72 h
  mitochondrial oxygen consumption: strongly decreased
